Experimental data: patent US20230103631A1, “PEPTIDES AS SELECTIVE GIP RECEPTOR AGONISTS” (Sanofi, priority 2020, published 2023)
*1 amine or outer side, *2 acyl side, *3 side chain or, on linkers, in order; H or OH if unused. Where a SMILES comes first, the peptide text is derived from it. Where no end group is shown, it is not given here. Side-chain parts run from the residue outwards. [ ]: non-standard residue; d: D form. The star is where a group is joined. C18 diacid = O=C(O)CCCCCCCCCCCCCCCCC(=O)*; γGlu = O=C(O)[C@H](CCC(=O)[*:2])N[*:1]; NMeY = CN[C@@H](Cc1ccc(O)cc1)C(=O)O; AEEA = NCCOCCOCC(=O)O; Aib = CC(C)(N)C(=O)O; Sar = CNCC(=O)O

T1: human GIP receptor (human, UniProt P48546 22-466)
T1 sequence (looked up): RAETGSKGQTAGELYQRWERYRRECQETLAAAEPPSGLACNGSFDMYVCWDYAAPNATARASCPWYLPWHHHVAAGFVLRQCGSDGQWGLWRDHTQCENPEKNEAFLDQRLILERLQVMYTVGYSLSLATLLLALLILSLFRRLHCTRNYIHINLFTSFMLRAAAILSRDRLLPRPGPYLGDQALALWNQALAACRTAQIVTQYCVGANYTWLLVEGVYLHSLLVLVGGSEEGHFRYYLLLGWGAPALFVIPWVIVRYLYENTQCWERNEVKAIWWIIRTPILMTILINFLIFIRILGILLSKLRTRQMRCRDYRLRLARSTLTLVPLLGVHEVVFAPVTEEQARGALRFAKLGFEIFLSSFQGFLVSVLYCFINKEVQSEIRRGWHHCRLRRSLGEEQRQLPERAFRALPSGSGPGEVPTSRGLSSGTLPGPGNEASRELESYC

B1: SEQ ID NO: 17 (peptide)
peptide: Y[Aib]EGTFISDLSI[Aib]K([Sar-Sar-Sar-γGlu-C18 diacid])DRIHQEEFIEWLLAQGPSSGAPPPS-NH2
modifications: N-terminus assumed
SMILES: CC[C@H](C)[C@H](NC(=O)[C@H](Cc1ccccc1)NC(=O)[C@H](CCC(=O)O)NC(=O)[C@H](CCC(=O)O)NC(=O)[C@H](CCC(N)=O)NC(=O)[C@H](Cc1c[nH]cn1)NC(=O)[C@@H](NC(=O)[C@H](CCCNC(=N)N)NC(=O)[C@H](CC(=O)O)NC(=O)[C@H](CCCCNC(=O)CN(C)C(=O)CN(C)C(=O)CN(C)C(=O)CC[C@H](NC(=O)CCCCCCCCCCCCCCCCC(=O)O)C(=O)O)NC(=O)C(C)(C)NC(=O)[C@@H](NC(=O)[C@H](CO)NC(=O)[C@H](CC(C)C)NC(=O)[C@H](CC(=O)O)NC(=O)[C@H](CO)NC(=O)[C@@H](NC(=O)[C@H](Cc1ccccc1)NC(=O)[C@@H](NC(=O)CNC(=O)[C@H](CCC(=O)O)NC(=O)C(C)(C)NC(=O)[C@@H](N)Cc1ccc(O)cc1)[C@@H](C)O)[C@@H](C)CC)[C@@H](C)CC)[C@@H](C)CC)C(=O)N[C@@H](CCC(=O)O)C(=O)N[C@@H](Cc1c[nH]c2ccccc12)C(=O)N[C@@H](CC(C)C)C(=O)N[C@@H](CC(C)C)C(=O)N[C@@H](C)C(=O)N[C@@H](CCC(N)=O)C(=O)NCC(=O)N1CCC[C@H]1C(=O)N[C@@H](CO)C(=O)N[C@@H](CO)C(=O)NCC(=O)N[C@@H](C)C(=O)N1CCC[C@H]1C(=O)N1CCC[C@H]1C(=O)N1CCC[C@H]1C(=O)N[C@@H](CO)C(N)=O

Assays:
physchem = type: physicochemical; settings: for Soluble amount: 24 h, pH 7.4; for solubility at 24 h: pH 7.4, Soluble amount
Experimental: Prior to the solubility measurement of a peptide batch, its purity was determined through UHPLC/MS. […] Therefore, solutions from solid samples were prepared in a buffer system with a concentration of 10 mg/ml compound based on the previously determined % purity: Solubility buffer system A) 100 mM phosphate buffer pH 7.4 […] Solubility buffer system C) 100 mM phosphate buffer pH 7.4, 2.7 mg/ml m-cresol UHPLC-UV was performed after 1 h of gentle agitation and storage at 5° C. over night (24 h) from the supernatant, which was obtained after 15 min of centrifugation at 2500 RCF (relative centrifugal acceleration). […] The different UV extinction coefficients of sample and reference peptide were calculated based on the different amino acid sequences and considered in the concentration calculation. The analytical method used was Analytical UHPLC Method A. Peptide samples were prepared in solubility buffer system A or C and solubility was assessed as described in Methods.

[1] = target: human GLP-1 receptor (hGLP-1R) (Homo sapiens, UniProt P43220); assay: cAMP HTRF assay, HEK-293 cell line over-expressing human GLP-1 receptor; type: cell-based; settings: HEK-293, cAMP, 0% HSA
Chain of human GLP-1 receptor (hGLP-1R) (P43220 24-463): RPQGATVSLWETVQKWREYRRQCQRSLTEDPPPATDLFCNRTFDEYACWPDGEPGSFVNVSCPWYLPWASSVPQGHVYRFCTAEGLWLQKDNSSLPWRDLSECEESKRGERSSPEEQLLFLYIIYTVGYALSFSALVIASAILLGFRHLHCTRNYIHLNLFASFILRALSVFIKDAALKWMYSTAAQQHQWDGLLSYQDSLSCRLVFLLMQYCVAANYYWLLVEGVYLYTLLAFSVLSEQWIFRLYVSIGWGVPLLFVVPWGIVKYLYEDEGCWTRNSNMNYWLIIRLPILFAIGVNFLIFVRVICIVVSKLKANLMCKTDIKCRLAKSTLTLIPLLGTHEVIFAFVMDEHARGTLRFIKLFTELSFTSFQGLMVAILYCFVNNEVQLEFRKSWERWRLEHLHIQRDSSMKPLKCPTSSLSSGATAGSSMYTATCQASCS
Experimental: Each vial contained 1.8 ml cells. The vials were slowly frozen to −80° C. in isopropanol, and then transferred in liquid nitrogen for storage.
Prior to their use, frozen cells were thawed quickly at 37° C. and washed (5 min at 900 rpm) with 20 ml cell buffer (1× HBSS; 20 mM HEPES, plus 0.1% HSA if indicated in Example conditions).
For measurement of cAMP generation, 5 μl cells (final 5000 cells/well) and 5 μl of test compound were added to a 384-well plate, followed by incubation for 30 min at room temperature.
The cAMP generated was determined using a kit from Cisbio Corp. based on HTRF (Homogenous Time Resolved Fluorescence). The cAMP assay was performed according to manufacturer's instructions (Cisbio).

human GIP receptor = target: T1, human GIP receptor; assay: cell-based or functional assay
human GLP-1 receptor = human GLP-1 receptor (human, UniProt P43220 24-463); assay: cell-based or functional assay

| Molecule | Soluble amount (physchem) | solubility at 24 h (physchem) | EC50 [1] | EC50 hGIPR 0% HSA, cAMP in HEK-293 cells (human GIP receptor) | EC50 hGIPR 0.1% HSA, cAMP in HEK-293 cells (human GIP receptor) | EC50 hGLP-1R 0% HSA, cAMP in HEK-293 cells (human GLP-1 receptor) |
| --- | --- | --- | --- | --- | --- | --- |
| CC[C@H](C)[C@H](NC(=O)[C@H](Cc1ccccc1)NC(=O)[C@H](CCC(=O)O)NC(=O)[C@H](CCC(=O)O)NC(=O)[C@H](CCC(N)=O)NC(=O)[C@H](Cc1c[nH]cn1)NC(=O)[C@@H](NC(=O)[C@H](CCCNC(=N)N)NC(=O)[C@H](CC(=O)O)NC(=O)[C@H](CCCCNC(=O)COCCOCCNC(=O)COCCOCCNC(=O)COCCOCCNC(=O)CC[C@H](NC(=O)CCCCCCCCCCCCCCCCC(=O)O)C(=O)O)NC(=O)C(C)(C)NC(=O)[C@@H](NC(=O)[C@H](CO)NC(=O)[C@H](CC(C)C)NC(=O)[C@H](CC(=O)O)NC(=O)[C@H](CO)NC(=O)[C@@H](NC(=O)[C@H](Cc1ccccc1)NC(=O)[C@@H](NC(=O)CNC(=O)[C@H](CCC(=O)O)NC(=O)C(C)(C)NC(=O)[C@@H](N)Cc1ccc(O)cc1)[C@@H](C)O)[C@@H](C)CC)[C@@H](C)CC)[C@@H](C)CC)C(=O)N[C@@H](CCC(=O)O)C(=O)N[C@@H](Cc1c[nH]c2ccccc12)C(=O)N[C@@H](CC(C)C)C(=O)N[C@@H](CC(C)C)C(=O)N[C@@H](C)C(=O)N[C@@H](CCC(N)=O)C(=O)NCC(=O)N1CCC[C@H]1C(=O)N[C@@H](CO)C(=O)N[C@@H](CO)C(=O)NCC(=O)N[C@@H](C)C(=O)N1CCC[C@H]1C(=O)N1CCC[C@H]1C(=O)N1CCC[C@H]1C(=O)N[C@@H](CO)C(N)=O [SEQ ID NO: 12, H2N-Y-Aib-E-G-T-F-I-S-D-I-S-I-Aib-K[{AEEA}3-gGlu-C18OH]-DRIHQEEFIEWILAQGPSSGAPPPS-NH2] (H-Y[Aib]EGTFISDLSI[Aib]K([AEEA-AEEA-AEEA-γGlu-C18 diacid])DRIHQEEFIEWLLAQGPSSGAPPPS-NH2) | >9.1 mg/mL | > 8800 µg/mL | > 10 nM | – | – | – |
| CC[C@H](C)[C@H](NC(=O)[C@H](Cc1ccccc1)NC(=O)[C@H](CCC(=O)O)NC(=O)[C@H](CCC(=O)O)NC(=O)[C@H](CCC(N)=O)NC(=O)[C@H](Cc1c[nH]cn1)NC(=O)[C@@H](NC(=O)[C@H](CCCNC(=N)N)NC(=O)[C@H](CC(=O)O)NC(=O)[C@H](CCCCNC(=O)COCCOCCNC(=O)COCCOCCNC(=O)CC[C@H](NC(=O)CCCCCCCCCCCCCCCCC(=O)O)C(=O)O)NC(=O)C(C)(C)NC(=O)[C@@H](NC(=O)[C@H](CO)NC(=O)[C@H](CC(C)C)NC(=O)[C@H](CC(=O)O)NC(=O)[C@H](CO)NC(=O)[C@@H](NC(=O)[C@H](Cc1ccccc1)NC(=O)[C@@H](NC(=O)CNC(=O)[C@H](CCC(=O)O)NC(=O)C(C)(C)NC(=O)[C@H](Cc1ccc(O)cc1)NC)[C@@H](C)O)[C@@H](C)CC)[C@@H](C)CC)[C@@H](C)CC)C(=O)N[C@@H](CCC(=O)O)C(=O)N[C@@H](Cc1c[nH]c2ccccc12)C(=O)N[C@@H](CC(C)C)C(=O)N[C@@H](CC(C)C)C(=O)N[C@@H](C)C(=O)N[C@@H](CCC(N)=O)C(=O)NCC(=O)N1CCC[C@H]1C(=O)N[C@@H](CO)C(=O)N[C@@H](CO)C(=O)NCC(=O)N[C@@H](C)C(=O)N1CCC[C@H]1C(=O)N1CCC[C@H]1C(=O)N1CCC[C@H]1C(=O)N[C@@H](CO)C(N)=O [SEQ ID NO: 13, MeHN-Y-Aib-E-G-T-F-I-S-D-I-S-I-Aib-K[{AEEA}2-gGlu-C18OH]-DRIHQEEFIEWILAQGPSSGAPPPS-NH2] (H-[NMeY][Aib]EGTFISDLSI[Aib]K([AEEA-AEEA-γGlu-C18 diacid])DRIHQEEFIEWLLAQGPSSGAPPPS-NH2) | >11.0 mg/mL | > 10200 µg/mL | > 10 nM | – | – | – |
| CC[C@H](C)[C@H](NC(=O)[C@H](Cc1ccccc1)NC(=O)[C@H](CCC(=O)O)NC(=O)[C@H](CCC(=O)O)NC(=O)[C@H](CCC(N)=O)NC(=O)[C@H](Cc1c[nH]cn1)NC(=O)[C@@H](NC(=O)[C@H](CCCNC(=N)N)NC(=O)[C@H](CC(=O)O)NC(=O)[C@H](CCCCNC(=O)COCCOCCNC(=O)COCCOCCNC(=O)CC[C@H](NC(=O)CC[C@H](NC(=O)CCCCCCCCCCCCCCCCC(=O)O)C(=O)O)C(=O)O)NC(=O)C(C)(C)NC(=O)[C@@H](NC(=O)[C@H](CO)NC(=O)[C@H](CC(C)C)NC(=O)[C@H](CC(=O)O)NC(=O)[C@H](CO)NC(=O)[C@@H](NC(=O)[C@H](Cc1ccccc1)NC(=O)[C@@H](NC(=O)CNC(=O)[C@H](CCC(=O)O)NC(=O)C(C)(C)NC(=O)[C@@H](N)Cc1ccc(O)cc1)[C@@H](C)O)[C@@H](C)CC)[C@@H](C)CC)[C@@H](C)CC)C(=O)N[C@@H](CCC(=O)O)C(=O)N[C@@H](Cc1c[nH]c2ccccc12)C(=O)N[C@@H](CC(C)C)C(=O)N[C@@H](CC(C)C)C(=O)N[C@@H](C)C(=O)N[C@@H](CCC(N)=O)C(=O)NCC(=O)N1CCC[C@H]1C(=O)N[C@@H](CO)C(=O)N[C@@H](CO)C(=O)NCC(=O)N[C@@H](C)C(=O)N1CCC[C@H]1C(=O)N1CCC[C@H]1C(=O)N1CCC[C@H]1C(=O)N[C@@H](CO)C(N)=O [SEQ ID NO: 14, H2N-Y-Aib-E-G-T-F-I-S-D-I-S-I-Aib-K[{AEEA}2-{gGlu}2-C18OH]-DRIHQEEFIEWILAQGPSSGAPPPS-NH2] (H-Y[Aib]EGTFISDLSI[Aib]K([AEEA-AEEA-γGlu-γGlu-C18 diacid])DRIHQEEFIEWLLAQGPSSGAPPPS-NH2) | >9.7 mg/mL | > 9300 µg/mL | > 10 nM | – | – | – |
| B1 | – | – | – | 0.00029 nM | 0.00339 nM | > 10 nM |
